In the assay the target is PIK3CA (human) (UniProt P42336). The experiment in a line: Inhibition of PIK3CA Kinase Activity.

A value given as a limit tells only on which side of the number the result lay.

PIK3CA (human), sequence (P42336 whole entry, looked up): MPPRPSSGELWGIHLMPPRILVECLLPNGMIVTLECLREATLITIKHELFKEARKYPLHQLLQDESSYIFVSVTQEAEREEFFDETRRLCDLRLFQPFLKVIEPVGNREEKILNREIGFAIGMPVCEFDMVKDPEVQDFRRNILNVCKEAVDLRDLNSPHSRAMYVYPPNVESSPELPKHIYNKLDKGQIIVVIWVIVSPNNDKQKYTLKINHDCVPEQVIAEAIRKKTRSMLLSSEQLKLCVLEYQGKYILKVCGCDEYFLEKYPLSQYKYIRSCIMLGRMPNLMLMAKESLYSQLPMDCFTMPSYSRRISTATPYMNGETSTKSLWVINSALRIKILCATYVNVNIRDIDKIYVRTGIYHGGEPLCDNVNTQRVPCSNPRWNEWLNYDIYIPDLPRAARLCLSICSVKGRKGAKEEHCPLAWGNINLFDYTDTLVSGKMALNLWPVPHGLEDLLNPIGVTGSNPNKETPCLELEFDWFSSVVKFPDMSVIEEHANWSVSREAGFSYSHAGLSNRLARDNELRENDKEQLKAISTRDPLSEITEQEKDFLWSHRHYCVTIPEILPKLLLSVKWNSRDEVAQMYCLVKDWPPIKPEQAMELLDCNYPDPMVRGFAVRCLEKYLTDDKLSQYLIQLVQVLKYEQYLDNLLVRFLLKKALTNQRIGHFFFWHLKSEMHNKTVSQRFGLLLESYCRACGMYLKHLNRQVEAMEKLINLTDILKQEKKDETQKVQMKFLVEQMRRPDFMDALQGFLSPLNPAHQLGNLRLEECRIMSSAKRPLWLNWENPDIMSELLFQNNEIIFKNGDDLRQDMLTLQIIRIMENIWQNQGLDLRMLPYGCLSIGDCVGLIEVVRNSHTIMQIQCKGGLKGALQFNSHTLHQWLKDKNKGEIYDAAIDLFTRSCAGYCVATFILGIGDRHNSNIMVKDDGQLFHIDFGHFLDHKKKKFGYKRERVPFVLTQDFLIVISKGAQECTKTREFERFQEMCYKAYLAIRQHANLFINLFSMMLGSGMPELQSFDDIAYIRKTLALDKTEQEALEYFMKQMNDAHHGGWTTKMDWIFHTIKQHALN

Turning to `Cc1nc2ccc(-c3ccc4c(c3)CN(c3ncnc(C)c3Cc3ccccc3)CCO4)cc2[nH]1`, the IC50 fell in the range of 10 to 50 nM.
As for `c1ccc2c(N3CCOc4ccc(-c5ccc6nccnc6c5)cc4C3)ccnc2c1`, the figure is 50 to 250 nM.
Compound `CC(C)NS(=O)(=O)c1cc(-c2ccc3c(c2)CN(c2ncnc4c2CC(C)(C)CC4)CCO3)cnc1N` registered an IC50 of at most 10 nM.
Next, `Cc1nc2ccc(-c3ccc4c(c3)CN(c3nc(CNCCF)nc5c3CC(C)(C)CC5)CCO4)cc2[nH]1`: at most 10 nM; `CCc1c(C(C)C)ncnc1N1CCOc2ccc(-c3ccc4nc(C)[nH]c4c3)cc2C1`: 250 to 1000 nM.
As for `Cc1ncnc(N2CCOc3ccc(-c4ccc(-c5ncc[nH]5)cc4)cc3C2)c1Cc1ccc(F)cc1`, the figure is at most 10 nM; as for `Cc1nc2ncc(-c3ccc4c(c3)CN(c3ncnc5c3CC[C@H](C)C5)CCO4)cc2[nH]1`, 10 to 50 nM.
Compound `CC1(C)CCc2ncnc(N3CCOc4ccc(-c5cnc(N)c(S(=O)(=O)N6CC7(CNC7)C6)c5)cc4C3)c2C1` had an IC50 of 10 to 50 nM.
As for `C=C[C@H]1CCCc2c(ncnc2N2CCOc3ccc(-c4cnc5nc(C)[nH]c5c4)cc3C2)C1`, the figure is 10 to 50 nM; as for `CN1CCN(S(=O)(=O)c2cc(-c3ccc4c(c3)CN(c3ncnc5c3CC(C)(C)CC5)CCO4)cnc2N)CC1`, 50 to 250 nM; as for `Cc1nc2ccc(-c3ccc4c(c3)CN(c3ncnc5c(Br)cccc35)CCO4)cc2[nH]1`, 50 to 250 nM.
Next, `Cc1ncnc(N2CCOc3ccc(-c4ccc5nc(N)ncc5c4)cc3C2)c1Cc1ccc(F)cc1`: 250 to 1000 nM; `Cc1nc2ccc(-c3ccc4c(c3)CN(c3ncnc(C)c3Cc3ccc(Cl)c(N(C)C)c3)CCO4)cc2[nH]1`: 10 to 50 nM; `C[C@@H](CO)CS(=O)(=O)c1cc(-c2ccc3c(c2)CN(c2ncnc4c2CC(C)(C)CC4)CCO3)cnc1N`: at most 10 nM.
As to `Cc1nc2ncc(-c3ccc4c(c3)CN(c3nc(CNC5CC5)nc5c3CC(C)(C)CC5)CCO4)cc2[nH]1`, the IC50 was 10 to 50 nM.
Next, `CC1(C)CCc2ncnc(N3CCOc4ccc(-c5cnc(N)c(S(=O)(=O)NCC6CCCNC6)c5)cc4C3)c2C1` (stereo not drawn): 10 to 50 nM; `CC(C)(CN)CNS(=O)(=O)c1cc(-c2ccc3c(c2)CN(c2ncnc4c2CC(C)(C)CC4)CCO3)cnc1N`: 50 to 250 nM.
Next, `CN(C)Cc1nc2c(c(N3CCOc4ccc(-c5cnc6nc(C7CC7)[nH]c6c5)cc4C3)n1)CC(C)(C)CC2`: at most 10 nM.
As for `COCCOc1ccc2ncnc(N3CCOc4ccc(-c5ccc6nc(C)[nH]c6c5)cc4C3)c2c1`, the figure is 250 to 1000 nM; as for `CC[C@H]1CCc2c(ncnc2N2CCOc3ccc(-c4cnc5nc(N)[nH]c5c4)cc3C2)C1`, at most 10 nM; as for `CC1(C)CCc2ncnc(N3CCOc4ccc(-c5cnc(N)c(S(=O)(=O)N6CC7CNCC7C6)c5)cc4C3)c2C1` (stereo not drawn), 50 to 250 nM.
`CCN1CCc2c(ncnc2N2CCOc3ccc(-c4ccc5nc(C)[nH]c5c4)cc3C2)C1` gave an IC50 of 250 to 1000 nM.
As for `Cc1nc2ccc(-c3ccc4c(c3)CN(c3ncnc(C(C)C)c3C)CCO4)cc2[nH]1`, the figure is 50 to 250 nM; as for `COC(=O)Nc1nc2ccc(-c3ccc4c(c3)CN(c3ccncn3)CCO4)cc2[nH]1`, 250 to 1000 nM; as for `CC[C@@H](C)NCc1nc2c(c(N3CCOc4ccc(-c5cnc6nc(C)[nH]c6c5)cc4C3)n1)CC(C)(C)CC2`, 10 to 50 nM.
`Cc1nc(CN(C)C)nc(N2CCOc3ccc(-c4ccc5scnc5c4)cc3C2)c1Cc1ccc(F)cc1` displayed an IC50 of 250 to 1000 nM.
Compound `CCNc1nc2ccc(-c3ccc4c(c3)CN(c3ccnc5ccc(F)cc35)CCO4)cc2[nH]1` yielded an IC50 of 10 to 50 nM.
As for `CCc1c(C)nc(CN(C)C)nc1N1CCOc2ccc(-c3cnc4sc(N)nc4c3)cc2C1`, the figure is at most 10 nM; as for `COc1ccc2c(N3CCOc4ccc(-c5cnc(N)c(S(=O)(=O)N6CC[C@H](N)C6)c5)cc4C3)ncnc2c1`, at most 10 nM.
For `Cc1nc2c(C)cc(-c3ccc4c(c3)CN(c3ncnc5cccnc35)CCO4)cc2[nH]1`, the IC50 lay within 50 to 250 nM.
In turn, `Cc1nc2ccc(-c3ccc4c(c3)CN(c3nc(CN5CC[C@@H](F)C5)nc5c3CC(C)(C)CC5)CCO4)cc2[nH]1` registered an IC50 of 10 to 50 nM.
As for `CCOc1ccc2ncnc(N3CCOc4ccc(-c5ccc6nc(C)[nH]c6c5)cc4C3)c2c1`, the figure is 50 to 250 nM; as for `CC1(C)CCc2ncnc(N3CCOc4ccc(-c5cnc(N)c(S(=O)(=O)NC[C@H]6CCNC6)c5)cc4C3)c2C1`, 10 to 50 nM.
As for `COC(=O)Nc1nc2ncc(-c3ccc4c(c3)CN(c3ccnc5cc(OC)c(OC)cc35)CCO4)cc2[nH]1`, the figure is 10 to 50 nM.
The compound `Cc1nc(CN(C)C)nc(N2CCOc3ccc(-c4cnc5sc(N)nc5c4)cc3C2)c1C` displayed an IC50 of at most 10 nM.
As for `COCCNCc1nc2c(c(N3CCOc4ccc(-c5cnc6nc(C)[nH]c6c5)cc4C3)n1)CC(C)(C)CC2`, the figure is 10 to 50 nM; as for `CCNc1nc2ccc(-c3ccc4c(c3)CN(c3nc(NC)nc5ccccc35)CCO4)cc2[nH]1`, 50 to 250 nM.
As for `CCNc1nc2ccc(-c3ccc4c(c3)CN(c3ccnc5cc(OC)c(OC)cc35)CCO4)cc2[nH]1`, the figure is 10 to 50 nM.
As for `O=C(CCCN1CCCCC1)Nc1nc2ccc(-c3ccc4c(c3)CN(c3ccnc5ccccc35)CCO4)cc2[nH]1`, the figure is 50 to 250 nM; as for `CC1(C)CCc2ncnc(N3CCOc4ccc(-c5cnc(N)c(S(=O)(=O)NC[C@H]6CCCN6)c5)cc4C3)c2C1`, 50 to 250 nM.
In the case of `CC1=Cc2ncnc(N3CCOc4ccc(-c5cnc6nc(C)[nH]c6c5)cc4C3)c2CC1(C)C`, the 50% inhibitory concentration (IC50) was in the range of 10 to 50 nM.
As for `CC1(C)CCc2ncnc(N3CCOc4ccc(-c5cnc(N)c(S(=O)(=O)NCC(O)C(F)(F)F)c5)cc4C3)c2C1` (stereo not drawn), the figure is 10 to 50 nM; as for `COC(=O)Nc1nc2ncc(-c3ccc4c(c3)CN(c3ncnc5c3CC(C)(C)CC5)CCO4)cc2[nH]1`, at most 10 nM.
Next, `COc1ccccc1Cc1c(C)ncnc1N1CCOc2ccc(-c3ccc4nc(C)[nH]c4c3)cc2C1`: 50 to 250 nM.
As for `CC1(C)CCc2ncnc(N3CCOc4ccc(-c5cnc6[nH]c(C(F)F)nc6c5)cc4C3)c2C1`, the figure is 50 to 250 nM; as for `Cc1nc2ccc(-c3ccc4c(c3)CN(c3ccncn3)CCO4)cc2[nH]1`, 250 to 1000 nM.
`Cc1nc2cc(-c3ccc4c(c3)CN(c3nc(CN(C)C)ncc3C(C)C)CCO4)ccc2[nH]1`: the IC50 is 10 to 50 nM.
As for `Cc1nc2ccc(-c3ccc4c(c3)CN(c3cc(C(F)(F)F)nc5ccccc35)CCO4)cc2[nH]1`, the figure is 50 to 250 nM; as for `Cc1nc(N)nc(N2CCOc3ccc(-c4ccc5[nH]cnc5c4)cc3C2)c1Cc1ccc(F)cc1`, at most 10 nM; as for `COc1ccc(-c2ccc3c(c2)CN(c2nc(CN(C)C)nc4c2CC(C)(C)CC4)CCO3)cc1Cl`, 250 to 1000 nM.
Next, `COc1ccc2c(N3CCOc4ccc(-c5cnc6[nH]cnc6c5)cc4C3)nc(CN(C)C)nc2c1`: at most 10 nM; `COc1ccc2ncnc(N3CCOc4ccc(-c5cnc6nc(N)[nH]c6c5)cc4C3)c2c1`: at most 10 nM; `CC1(C)CCc2ncnc(N3CCOc4ccc(-c5cnc(N)c(CS(C)(=O)=O)c5)cc4C3)c2C1`: 50 to 250 nM.
The compound `Cc1nc2ncc(-c3ccc4c(c3)CN(c3nc(CN(C)C)nc5c3CC(C)(C)CC5)CCO4)cc2[nH]1` gave an IC50 of at most 10 nM.
`C[C@H]1CCc2c(ncnc2N2CCOc3ccc(-c4cnc5nc(C6CC6)[nH]c5c4)cc3C2)C1` gave an IC50 of 10 to 50 nM.
As for `Cc1nc2ncc(-c3ccc4c(c3)CN(c3nc(CN(C)C(C)C)nc5c3CC(C)(C)CC5)CCO4)cc2[nH]1`, the figure is at most 10 nM; as for `Cc1ncnc(N2CCOc3ccc(-c4cnc5nc(N)[nH]c5c4)cc3C2)c1Cc1ccc(F)cc1`, at most 10 nM; as for `CC1(C)CCc2ncnc(N3CCOc4ccc(-c5cnc(C(N)=O)c(N)c5)cc4C3)c2C1`, 250 to 1000 nM.
As for `CC1(C)CCc2ncnc(N3CCOc4ccc(-c5cnc(N)c(S(=O)(=O)N6CCC(O)CC6)c5)cc4C3)c2C1`, the figure is 50 to 250 nM.
Next, `Cc1nc2ccc(-c3ccc4c(c3)CN(c3ncnc(C)c3C(C)c3ccccc3)CCO4)cc2[nH]1` (stereo not drawn): 10 to 50 nM; `Cc1nc2cc(-c3ccc4c(c3)CN(c3nc(C(C)N)nc5c3CC(C)(C)CC5)CCO4)ccc2[nH]1` (stereo not drawn): 10 to 50 nM.
As to `COc1ccc2c(N3CCOc4ccc(-c5ccc(OC)c(OC)c5)cc4C3)nc(CN(C)C)nc2c1`, the 50% inhibitory concentration (IC50) lay within 10 to 50 nM.
As for `CC1(C)CCc2ncnc(N3CCOc4ccc(-c5cnc(N)c(S(=O)(=O)NC(C)(C)CO)c5)cc4C3)c2C1`, the IC50 was in the range of 50 to 250 nM.
As for `CCOC(=O)c1nc(N2CCOc3ccc(-c4ccc5nc(C)[nH]c5c4)cc3C2)c2ccccc2n1`, the figure is 50 to 250 nM; as for `COc1ncc(-c2ccc3c(c2)CN(c2ncnc4c2CC(C)(C)CC4)CCO3)cc1NS(C)(=O)=O`, at most 10 nM; as for `Cc1nc2ncc(-c3ccc4c(c3)CN(c3ncnc5c3CCC(C(F)(F)F)C5)CCO4)cc2[nH]1` (stereo not drawn), 50 to 250 nM.
`CSc1nc2ccc(-c3ccc4c(c3)CN(c3ccnc5ccccc35)CCO4)cc2[nH]1` returned an IC50 of 10 to 50 nM.
As for `CC1(C)CCc2ncnc(N3CCOc4ccc(-c5cnc(N)c(S(=O)(=O)NCCCO)c5)cc4C3)c2C1`, the figure is at most 10 nM; as for `CC1=CC(C)(C)Cc2c1ncnc2N1CCOc2ccc(-c3cnc(N)c(S(=O)(=O)N[C@@H]4CCN(C)C4)c3)cc2C1`, 50 to 250 nM.
Take `Cc1nc2ccc(-c3ccc4c(c3)CN(c3ccnc(C)c3Cc3ccc(F)cc3)CCO4)cc2[nH]1`: the IC50 was in the range of 10 to 50 nM.
As to `COc1ccc2c(N3CCOc4ccc(-c5ccc6nc(C)[nH]c6c5)cc4C3)ncnc2c1`, the IC50 is at most 10 nM.
Next, `Cc1nc2ncc(-c3ccc4c(c3)CN(c3ncnc5c3C[C@H](C)[C@@H](C)C5)CCO4)cc2[nH]1`: 50 to 250 nM.
Next, `COCCOc1cc(-c2ccc3c(c2)CN(c2nc(CN(C)C)nc4c2CC(C)(C)CC4)CCO3)ccc1OC`: 50 to 250 nM; `Cc1nc2ncc(-c3ccc4c(c3)CN(c3ncncc3C)CCO4)cc2[nH]1`: 250 to 1000 nM; `Cc1nc2ccc(-c3ccc4c(c3)CN(c3nc(CO)nc(C)c3C(C)C)CCO4)cc2[nH]1`: 10 to 50 nM.
In turn, `CSc1nc2c(c(N3CCOc4ccc(-c5ccc6nc(C)[nH]c6c5)cc4C3)n1)CCC2` returned an IC50 of 250 to 1000 nM.
Next, `CC1=C(C)C(C)(C)Cc2c1ncnc2N1CCOc2ccc(-c3cnc4nc(C)[nH]c4c3)cc2C1`: 10 to 50 nM; `Cc1cccc(Cc2c(C)ncnc2N2CCOc3ccc(-c4ccc5nc(C)[nH]c5c4)cc3C2)c1`: 50 to 250 nM.

One may read the IC50 as the concentration at which inhibition is half-maximal. A higher IC50 goes with weaker potency.
